In patent US10174037B2, “Dihydropyrazolopyrimidinone compounds as PDE2 inhibitors” (Merck Sharp & Dohme Corp., priority 2015, dated 2019) one finds Ki data, which are given here for 28 compounds.

This experiment concerns the target Rhesus PDE2A3 (Macaca mulatta, UniProt B3VTJ2). The experiment is described as follows: PDE2 fluorescence polarization (IMAP FP) assay, rhesus PDE2A3. It is filed as biochemical, rhesus macaque. As for the experimental part: A Labcyte Echo 555 (Labcyte, Sunnyvale, Calif.) is used to dispense 200 nL from each well of the titration plate to the 384 well assay plate. Ten microliters of a solution of enzyme (1/2000 final dilution from aliquots; sufficient to produce 20% substrate conversion) was added to the assay plate. Next 10 uL of a separate solution of the substrate FAM-labeled cAMP (50 nM final concentration product # R7506 from Molecular Devices) and the activator cGMP (1 uM final concentration), prepared in the assay buffer (10 mM Tris HCl, pH 7.2, 10 mM MgCl2, 0.05% NaN3 0.01% Tween-20, and 1 mM DTT) was added to the assay plate and shaken to mix. The reaction is allowed to proceed at room temperature for 60 minutes. A binding solution is then made from the kit components, comprised of 80% Solution A, 20% Solution B and binding reagent at a volume of 1/600 the total binding solution. The enzymatic reaction is stopped by addition of 60 μL of the binding solution to each well of the assay plates and the plates are sealed and shaken for 30 seconds. The plate was incubated at room temperature for at least one hour prior to determining the fluorescence polarization (FP). The parallel and perpendicular fluorescence of each well of the plate was measured using a Tecan Genios Pro plate reader (Tecan, Switzerland) or Perkin Elmer EnVision™ plate reader (Waltham, Mass.). Fluorescence polarization (mP) was calculated from the parallel (S) and perpendicular (P) fluorescence of each sample well and the analogous values for the median control well, containing only substrate (So and Po), using the following equation: Polarization (mP)=1000*(S/So−P/Po)/(S/So+P/Po).
Dose-inhibition profiles for each compound were characterized by fitting the mP data to a four-parameter equation given below.
An apparent (KM) for FAM-labeled cAMP of ˜10 uM was used.
(In fluorescence polarisation assays a small probe gives low polarisation when free and higher when bound to something large.)

Setting [1] is: Lab B, read-out: Rhesus PDE2 Ki (nM) Lab B.
Where [2] appears, read: Lab A, read-out: Rhesus PDE2 Ki (nM) Lab A.

Where two headings read alike, the source gives them in different places. A value given as a limit tells only on which side of the number the result lay.

Sequence of Rhesus PDE2A3 (B3VTJ2 1-941): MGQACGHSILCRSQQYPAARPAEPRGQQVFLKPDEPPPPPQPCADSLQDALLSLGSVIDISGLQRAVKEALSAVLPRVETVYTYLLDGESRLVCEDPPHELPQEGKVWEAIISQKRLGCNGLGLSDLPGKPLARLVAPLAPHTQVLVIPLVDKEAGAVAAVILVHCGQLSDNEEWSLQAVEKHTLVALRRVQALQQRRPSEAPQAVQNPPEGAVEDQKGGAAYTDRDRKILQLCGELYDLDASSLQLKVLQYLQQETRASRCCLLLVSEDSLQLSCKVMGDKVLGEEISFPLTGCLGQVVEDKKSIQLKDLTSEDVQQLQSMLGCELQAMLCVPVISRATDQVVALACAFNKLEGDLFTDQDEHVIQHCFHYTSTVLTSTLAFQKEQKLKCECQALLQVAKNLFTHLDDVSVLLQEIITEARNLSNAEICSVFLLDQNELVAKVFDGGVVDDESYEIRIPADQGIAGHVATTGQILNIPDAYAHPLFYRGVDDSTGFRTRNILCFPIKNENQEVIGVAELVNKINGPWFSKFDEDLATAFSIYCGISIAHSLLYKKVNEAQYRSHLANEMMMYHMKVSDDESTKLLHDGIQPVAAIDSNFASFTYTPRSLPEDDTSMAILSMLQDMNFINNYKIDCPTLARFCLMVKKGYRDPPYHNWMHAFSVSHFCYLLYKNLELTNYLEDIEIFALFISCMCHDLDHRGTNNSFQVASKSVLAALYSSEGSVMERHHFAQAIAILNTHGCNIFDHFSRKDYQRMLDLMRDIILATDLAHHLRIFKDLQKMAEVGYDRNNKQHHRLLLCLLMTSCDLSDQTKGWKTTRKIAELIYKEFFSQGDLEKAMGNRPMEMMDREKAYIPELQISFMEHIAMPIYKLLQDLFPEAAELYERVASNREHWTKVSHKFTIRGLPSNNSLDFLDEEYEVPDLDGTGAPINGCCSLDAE

As a reminder, the Ki is a dissociation constant, usually derived from enzyme kinetics or from competition with a known ligand. Take `CC(c1ccc(C(F)(F)F)c(F)c1)n1nc(CC(F)(F)F)c2c(=O)[nH]c(O)nc21` (single isomer, unassigned) [Example 234, (R)- or (S)-1-(1-(3-Fluoro-4-(trifluoromethyl)phenyl)ethyl)-6-hydroxy-3-(2,2,2-trifluoroethyl)-1H-pyrazolo[3,4-d]pyrimidin-4(5H)-one]: the inhibition constant (Ki) under setting [1] is 180 nM.

Turning to `CC(C)C(c1ccc(C(F)(F)F)c(F)c1)n1nc(CC(F)(F)F)c2c(=O)[nH]c(O)nc21` (single isomer, unassigned) [Example 259], under setting [1], the Ki was 148 nM. Same read-out and setting: next, `CC1(C(c2ccc(C(F)(F)F)cc2)n2nc(CC(F)(F)F)c3c(=O)[nH]c(O)nc32)CC1` (single isomer, unassigned) [Example 245, (S)- or (R)-6-Hydroxy-l-((1-methylcyclopropyl)(4-(trifluoromethyl)phenyl)methyl)-3-(2,2,2-trifluoroethyl)-1H-pyrazolo[3,4-d]pyrimidin-4(5H)-one]: 698 nM; `CC(c1ccc(C(F)(F)F)cc1)n1nc(C(F)(F)C(F)(F)F)c2c(=O)[nH]c(O)nc21` (single isomer, unassigned) [Example 267, (S)- or (R)-6-Hydroxy-3-(perfluoroethyl)-1-(1-(4-(trifluoromethyl)phenyl)ethyl)-1H-pyrazolo[3,4-d]pyrimidin-4(5H)-one]: 448 nM. Take `O=c1[nH]c(O)nc2c1c(CO)nn2Cc1ccc(C(F)(F)F)cc1` [Example 9, 6-Hydroxy-3-(hydroxymethyl)-1-[4-(trifluoromethyl)benzyl]-1,5-dihydro-4H-pyrazolo[3,4-d]pyrimidin-4-one]: under setting [2], the Ki is approximately 548 nM. Regarding `CC(C)(C)C(c1ccc(C(F)(F)F)cc1)n1nc(C(F)F)c2c(=O)[nH]c(O)nc21` (single isomer, unassigned) [Example 283, (R)- or (S)-3-(Difluoromethyl)-1-(2,2-dimethyl-1-(4-(trifluoromethyl)phenyl)propyl)-6-hydroxy-1H-pyrazolo[3,4-d]pyrimidin-4(5H)-one], the Ki under setting [1] is approximately 1510 nM. Consider `CC(C)(C)C(c1ccc(C(F)(F)F)cc1)n1nc(CF)c2c(=O)[nH]c(O)nc21` (single isomer, unassigned) [Example 52], for which, under setting [1], the Ki was found to be 910 nM. As to `CC(C)C(c1ccc(C(F)(F)F)cc1)n1nc(CC(F)(F)F)c2c(=O)[nH]c(O)nc21` (single isomer, unassigned) [Example 241, (S)- or (R)-6-Hydroxy-1-(2-methyl-1-(4-(trifluoromethyl)phenyl)propyl)-3-(2,2,2-trifluoroethyl)-1H-pyrazolo[3,4-d]pyrimidin-4(5H)-one], the Ki under setting [1] was found to be 199 nM.

Consider `CC(C)C(c1ccc(OC(F)(F)F)c(F)c1)n1nc(CC(F)(F)F)c2c(=O)[nH]c(O)nc21` (single isomer, unassigned) [Example 264, (R)- or (S)-1-(1-(3-Fluoro-4-(trifluoromethoxy)phenyl)-2-methylpropyl)-6-hydroxy-3-(2,2,2-trifluoroethyl)-1H-pyrazolo[3,4-d]pyrimidin-4(5H)-one], for which the Ki under setting [1] turned out to be 600 nM. For the compound `O=c1[nH]c(O)nc2c1c(CO)nn2C(CC(F)(F)F)c1ccc(C(F)(F)F)cc1` (single isomer, unassigned) [Example 22], the Ki under setting [1] was found to be 253 nM. The same measure, in the same setting: next, `CC(C)C(c1ccc(OC(F)(F)F)cc1)n1nc(CC(F)(F)F)c2c(=O)[nH]c(O)nc21` (single isomer, unassigned) [Example 232, (R)- or (S)-6-Hydroxy-1-(2-methyl-1-(4-(trifluoromethoxy)phenyl)propyl)-3-(2,2,2-trifluoroethyl)-1H-pyrazolo[3,4-d]pyrimidin-4(5H)-one]: 192 nM. Take `N#CCc1nn(C(c2ccc(C(F)(F)F)cc2)C2CC2)c2nc(O)[nH]c(=O)c12` (single isomer, unassigned) [Example 297]: the Ki under setting [1] stood at 207 nM. The same measure, in the same setting: to `O=c1[nH]c(O)nc2c1c(CC(F)(F)F)nn2C(c1ccc(C(F)(F)F)cc1)C1CC1` (single isomer, unassigned) [Example 227] belongs 12 nM; to `CC(C)(C)c1ccc(C(C2CC2)n2nc(CC(F)(F)F)c3c(=O)[nH]c(O)nc32)cc1` (single isomer, unassigned) [Example 251, (S)- or (R)-1-((4-tert-Butylphenyl)(cyclopropyl)methyl)-6-hydroxy-3-(2,2,2-trifluoroethyl)-1H-pyrazolo[3,4-d]pyrimidin-4(5H)-one], 363 nM. With `CC(c1ccc(C(C)(C)C)cc1)n1nc(CC(F)(F)F)c2c(=O)[nH]c(O)nc21` (single isomer, unassigned) [Example 237, (S)- or (R)-1-(1-(4-tert-Butylphenyl)ethyl)-6-hydroxy-3-(2,2,2-trifluoroethyl)-1H-pyrazolo[3,4-d]pyrimidin-4(5H)-one], the Ki under setting [1] was determined as 494 nM. On to `CC(c1ccc(OC(F)(F)F)cc1)n1nc(C(F)F)c2c(=O)[nH]c(O)nc21` (single isomer, unassigned) [Example 273, (R)- or (S)-3-(Difluoromethyl)-6-hydroxy-1-(1-(4-(trifluoromethoxy)phenyl)ethyl)-1H-pyrazolo[3,4-d]pyrimidin-4(5H)-one], for which, under setting [1], the Ki came out at 113 nM. Take `CCC(c1ccc(C(F)F)c(F)c1)n1nc(CO)c2c(=O)[nH]c(N(C)C)nc21` (single isomer, unassigned) [Example 147]: under setting [1], the inhibitory constant (Ki) came to 0.54 nM. With `CC(c1ccc(S(F)(F)(F)(F)F)cc1)n1nc(CO)c2c(=O)[nH]c(O)nc21` (single isomer, unassigned) [Example 20, (R)- or (S)-6-Hydroxy-3-(hydroxymethyl)-1-{1-[4-(pentafluorosulfanyl)phenyl]ethyl}-1,5-dihydro-4H-pyrazolo[3,4-d]pyrimidin-4-one], under setting [2], the Ki was approximately 684 nM.

Consider `CC(C)C(c1ccc(C(F)(F)F)c(F)c1)n1nc(CF)c2c(=O)[nH]c(N(C)C)nc21` (single isomer, unassigned) [Example 220, (R)- or (S)-6-(Dimethylamino)-1-(1-(3-fluoro-4-(trifluoromethyl)phenyl)-2-methylpropyl)-3-(fluoromethyl)-1H-pyrazolo[3,4-d]pyrimidin-4(5H)-one], for which the Ki under setting [1] came out at 0.5 nM. Consider `CC(c1ccc(OC(F)(F)F)c(F)c1)n1nc(CO)c2c(=O)[nH]c(O)nc21` (single isomer, unassigned) [Example 11], for which the Ki under setting [2] stood at 14 nM and the Ki under setting [1] worked out at 34 nM. Consider `CC(C)(C)C(c1ccc(C(F)(F)F)cc1)n1nc(CO)c2c(=O)[nH]c(O)nc21` (single isomer, unassigned) [Example 29, (R)- or (S)-1-(2,2-Dimethyl-1-(4-(trifluoromethyl)phenyl)propyl)-6-hydroxy-3-(hydroxymethyl)-1H-pyrazolo[3,4-d]pyrimidin-4(5H)-one], for which the Ki under setting [1] stood at 220 nM. Turning to `O=c1[nH]c(O)nc2c1c(CC(F)(F)F)nn2C(c1ccc(OC(F)(F)F)c(F)c1)C1CC1` (single isomer, unassigned) [Example 253, (S)- or (R)-1-(Cyclopropyl(3-fluoro-4-(trifluoromethoxy)phenyl)methyl)-6-hydroxy-3-(2,2,2-trifluoroethyl)-1H-pyrazolo[3,4-d]pyrimidin-4(5H)-one], the Ki under setting [1] stood at 120 nM. On to `CC(c1ccc(C(F)(F)F)cc1)n1nc(CO)c2c(=O)[nH]c(O)nc21` (single isomer, unassigned) [Example 18, (R)- or (S)-6-Hydroxy-3-(hydroxymethyl)-1-{1-[4-(trinuoromethyl)phenyl]ethyl}-1,5-dihydro-4H-pyrazolo[3,4-d]pyrimidin-4-one], for which the Ki under setting [2] is more than 1000 nM. Turning to `CC(c1ccc(OC(F)(F)F)c(F)c1)n1nc(CC#N)c2c(=O)[nH]c(O)nc21` (single isomer, unassigned) [Example 300, (S)- or (R)-2-(1-(1-(3-Fluoro-4-(trifluoromethoxy)phenyl)ethyl)-6-hydroxy-4-oxo-4,5-dihydro-1H-pyrazolo[3,4-d]pyrimidin-3-yl)acetonitrile], the Ki under setting [1] worked out at 101 nM. On the same count and under the same terms, next, `CC(C)C(c1ccc(C(F)(F)F)cc1)n1nc(CO)c2c(=O)[nH]c(O)nc21` (single isomer, unassigned) [Example 12]: 192 nM; `CC(C)(C)C(c1ccc(C(F)(F)F)cc1)n1nc(C(F)F)c2c(=O)[nH]c(O)nc21` (single isomer, unassigned) [Example 284, (S)- or (R)-3-(Difluoromethyl)-1-(2,2-dimethyl-1-(4-(trifluoromethyl)phenyl)propyl)-6-hydroxy-1H-pyrazolo[3,4-d]pyrimidin-4(5H)-one]: 206 nM.

Take `CC(c1ccc(OC(F)(F)F)c(F)c1)n1nc(CO)c2c(=O)[nH]c(O)nc21` (single isomer, unassigned) [Example 10]: the inhibition constant (Ki) came out at 145 nM under setting [2] and 249 nM under setting [1].

Regarding `Cc1nn(Cc2ccc(C(F)(F)F)cc2)c2nc(O)[nH]c(=O)c12` [Example 61, 6-Hydroxy-3-methyl-1-[4-(trifluoromethyl)benzyl]-1,5-dihydro-4H-pyrazolo[3,4-d]pyrimidin-4-one], the Ki under setting [2] was approximately 951 nM.
